Source: BigSolDB 2.1

C=CC(=O)NC(C)(C)C
Conditions	solubility (mole fraction)
in DMAc, 293.15 K	0.0814
in DMAc, 298.15 K	0.0897
in DMAc, 303.15 K	0.0979
in DMAc, 308.15 K	0.11
in DMAc, 313.15 K	0.127
in DMAc, 318.15 K	0.146
in DMAc, 323.15 K	0.172
in DMAc, 328.15 K	0.203
in DMAc, 333.15 K	0.236
in DMAc, 338.15 K	0.274
in DMAc, 343.15 K	0.317
in DMAc, 348.15 K	0.364
in DMAc, 353.15 K	0.43
in DMF, 288.15 K	0.0207
in DMF, 293.15 K	0.0237
in DMF, 298.15 K	0.0283
in DMF, 303.15 K	0.0333
in DMF, 308.15 K	0.0403
in DMF, 313.15 K	0.0463
in DMF, 318.15 K	0.0529
in DMF, 323.15 K	0.0599
in DMF, 328.15 K	0.0709
in DMF, 333.15 K	0.0833
in DMF, 338.15 K	0.0987
in DMF, 343.15 K	0.117
in DMF, 348.15 K	0.138
in DMF, 353.15 K	0.166
in dichloromethane, 279.15 K	0.00541
in dichloromethane, 283.15 K	0.0065
in dichloromethane, 285.15 K	0.0072
in dichloromethane, 287.15 K	0.00798
in dichloromethane, 289.15 K	0.00889
in dichloromethane, 291.15 K	0.00962
in dichloromethane, 293.15 K	0.0106
in dichloromethane, 296.15 K	0.0117
in dichloromethane, 298.15 K	0.0128
in dichloromethane, 301.15 K	0.0142
in dichloromethane, 304.15 K	0.016
in ethanol, 284.95 K	0.00136
in ethanol, 287.95 K	0.00152
in ethanol, 291.15 K	0.0017
in ethanol, 294.15 K	0.0021
in ethanol, 297.15 K	0.0024
in ethanol, 300.15 K	0.00283
in ethanol, 304.15 K	0.00344
in ethanol, 307.15 K	0.00392
in ethanol, 310.15 K	0.00463
in ethanol, 313.15 K	0.00522
in ethanol, 316.15 K	0.00598
in ethanol, 319.15 K	0.00677
in ethanol, 324.15 K	0.00864
in ethanol, 330.15 K	0.0113
in ethanol, 335.15 K	0.0142
in ethyl acetate, 287.15 K	0.015
in ethyl acetate, 290.15 K	0.0155
in ethyl acetate, 293.15 K	0.0166
in ethyl acetate, 296.15 K	0.0178
in ethyl acetate, 299.15 K	0.0188
in ethyl acetate, 302.15 K	0.0204
in ethyl acetate, 305.15 K	0.0225
in ethyl acetate, 310.15 K	0.0256
in ethyl acetate, 315.15 K	0.0289
in ethyl acetate, 320.15 K	0.0327
in ethyl acetate, 325.15 K	0.0363
in ethyl acetate, 330.15 K	0.0406
in ethyl acetate, 335.15 K	0.045
in ethyl acetate, 340.15 K	0.0506
in formamide, 284.15 K	0.00078
in formamide, 288.15 K	0.000929
in formamide, 294.15 K	0.00117
in formamide, 305.15 K	0.00199
in formamide, 308.15 K	0.00229
in formamide, 312.15 K	0.00277
in formamide, 316.15 K	0.00348
in formamide, 320.15 K	0.0043
in formamide, 324.15 K	0.00512
in formamide, 329.15 K	0.00639
in formamide, 334.15 K	0.00776
in formamide, 340.15 K	0.00994
in formamide, 345.15 K	0.0122
in formamide, 350.15 K	0.015
in water, 294.15 K	0.000895
in water, 298.15 K	0.000994
in water, 303.15 K	0.00111
in water, 308.15 K	0.00122
in water, 313.15 K	0.00136
in water, 318.15 K	0.00153
in water, 323.15 K	0.00172
in water, 328.15 K	0.00192
in water, 333.15 K	0.00215
in water, 338.15 K	0.0024
in water, 343.15 K	0.00267
in water, 348.15 K	0.00297
in water, 353.15 K	0.00338
